The target of one assay is T1, VDBP (Homo sapiens, UniProt P02774).
T1 sequence (P02774 17-474): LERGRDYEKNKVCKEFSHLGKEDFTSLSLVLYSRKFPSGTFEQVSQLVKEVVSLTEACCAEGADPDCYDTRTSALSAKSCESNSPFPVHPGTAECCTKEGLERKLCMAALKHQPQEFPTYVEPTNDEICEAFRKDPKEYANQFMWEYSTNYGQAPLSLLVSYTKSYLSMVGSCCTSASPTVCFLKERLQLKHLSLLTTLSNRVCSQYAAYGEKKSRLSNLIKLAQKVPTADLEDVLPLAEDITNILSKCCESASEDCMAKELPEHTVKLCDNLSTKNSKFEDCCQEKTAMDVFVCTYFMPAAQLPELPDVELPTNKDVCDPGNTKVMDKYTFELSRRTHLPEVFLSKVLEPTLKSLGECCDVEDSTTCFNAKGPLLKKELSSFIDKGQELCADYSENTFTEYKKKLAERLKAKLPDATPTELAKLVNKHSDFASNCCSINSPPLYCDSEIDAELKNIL
To be noted: relative to vitamin D3; Am J Kidney Dis, 1998; 32:S25-39; cited from earlier work.

Assay [1] has as its system MCF-7 human breast cancer cell. The assay is described as follows: MCF-7 cell proliferation (Calbiochem Rapid Cell Proliferation Kit). Format: cell-based. The settings on record: for Absorbance units (×10^3), cell proliferation: control (no addition) 450 ± 21. The method, then:
The biological activity of the molecules and the multimolecular complexes described in the preceding sections was tested in an in vitro system (MCF-7 human breast cancer cell cultures) that is routinely used to assess the biological activity of vitamin D3 and of the other components of the vitamin D axis (Evid Based Complement Alternat Med. 2012; 2012:310872. Oncol Rep. 2012 December; 28(6):2131-7. Anticancer Res. 2012 March; 32(3):739-46). Human breast carcinoma cells MCF-7 were challenged with different concentration of vitamin D3, de-VDBP, and [vitamin D3/de-VDBP/oleic acid]. […] The same level of inhibition, however, could be achieved with 1000 fold less vitamin D3 when it was complexed with de-VDBP and oleic acid.

Where no end group is shown, it is not given here.

`C=C1/C(=C\C=C2/CCC[C@]3(C)[C@@H]([C@H](C)OCCC(C)(C)O)CC[C@@H]23)C[C@@H](O)C[C@@H]1O` [22-oxacalcitriol]: the VDBP affinity result at VDBP was “low”.

As for `[2H]C([2H])=C1/C(=C([2H])\C=C2/CCC[C@]3(C)[C@@H]([C@H](C)CCCC(C)(C)O)CC[C@@H]23)C[C@@H](O)C[C@@H]1O` [Vitamin D3, 1α,25-Dihydroxyvitamin D3 (6,19,19-d3)], the “Absorbance units (×10^3), cell proliferation” value (“Absorbance units” for short) in assay [1] (Vitamin D3 1 nM) was 425 ± 10 Absorbance units (×10^3); in assay [1] (Vitamin D3 1 uM), 55 ± 10 Absorbance units (×10^3). The “Concentration giving maximal inhibition of MCF-7 proliferation” value in assay [1] (very high, non-physiological concentration) was found to be 1 µM.

Take `C=C1/C(=C\C=C2/CCC[C@]3(C)[C@@H]([C@H](C)/C=C/[C@@H](O)C4CC4)CC[C@@H]23)C[C@@H](O)C[C@@H]1O` [calcipotriene]: at VDBP, the VDBP affinity result is “low”.

As for “de-VDBP: vitamin D binding protein de-glycosylated at position Thr 420 by sequential removal of sialic acid and galactose (DSTTCFNAKGPLLKKELSSFIDKGQELC; cysteine pairing not given here; also: de-glycosylated at Thr 420 by removal of sialic acid and galactose; listed as Homo sapiens)”, the “Absorbance units” value in assay [1] (de-VDBP 1 ng/ml) is given as 395 ± 37 Absorbance units (×10^3).

B1: [Vitamin D3 1 nM/de-VDBP 1 ng/ml/oleic acid 1/1]: trimeric complex of vitamin D3 and oleic acid bound to de-VDBP via hydrophobic interactions (protein, UniProt P02774 17-474, looked up)
Vitamin D-binding protein: LERGRDYEKNKVCKEFSHLGKEDFTSLSLVLYSRKFPSGTFEQVSQLVKEVVSLTEACCAEGADPDCYDTRTSALSAKSCESNSPFPVHPGTAECCTKEGLERKLCMAALKHQPQEFPTYVEPTNDEICEAFRKDPKEYANQFMWEYSTNYGQAPLSLLVSYTKSYLSMVGSCCTSASPTVCFLKERLQLKHLSLLTTLSNRVCSQYAAYGEKKSRLSNLIKLAQKVPTADLEDVLPLAEDITNILSKCCESASEDCMAKELPEHTVKLCDNLSTKNSKFEDCCQEKTAMDVFVCTYFMPAAQLPELPDVELPTNKDVCDPGNTKVMDKYTFELSRRTHLPEVFLSKVLEPTLKSLGECCDVEDSTTCFNAKGPLLKKELSSFIDKGQELCADYSENTFTEYKKKLAERLKAKLPDATPTELAKLVNKHSDFASNCCSINSPPLYCDSEIDAELKNIL
modifications: deglycosylated; vitamin D3 and oleic acid bound
Consider B1, for which the “Absorbance units” value in assay [1] (Vitamin D3 1 nM / de-VDBP 1 ng/ml / oleic acid ratio 1/1) was 55 ± 9 Absorbance units (×10^3). The “Fold less vitamin D3 needed for the same level of inhibition” value in assay [1] (versus 1 uM vitamin D3 alone) is 1000 fold.

These data come from patent publication US20160220587A1, “VITAMIN D COMPLEXES WITH DE-VDBP AND AN UNSATURATED FATTY ACID, AND THEIR USE IN THERAPY” (priority 2013, published 2016).
